Columns and labels:
Format in all cases: in vivo, human
[1] = system: FSH; test: Experiment 4: single oral dose pharmacodynamic study, serum FSH (DELFIA); conditions: healthy male volunteers, single oral doses 4, 8, 16 mg
From the text: (§1) A phase I, double-blind, parallel groups, placebo-controlled, cross-over, pharmacodynamic study with compound 1 in healthy male volunteers to assess glycinergic responses in cerebro-spinal fluid and plasma after single oral doses
(§2) This was a double-blind, placebo-controlled, parallel group trial in 15 subjects, randomized to 3 parallel groups of 5 subjects each. The subjects received two single doses in a randomized cross-over design. There was an interval of at least 3 days between the drug administrations. Subjects were male volunteers with a good physical and mental health, aged 18-45 years, body mass index 18-28 kg/m^2.
(§3) A freeze dried cake of compound 1 (Batch No CW122) was reconstituted with sterile water and subsequently further diluted with orange juice to a total volume of 200 mL for oral administration. Dose levels used were: • Group 1: 8 mg compound 1 and […] • Group 2: 16 mg compound 1 and placebo • Group 3: 8 mg compound 1 and 4 mg compound 1
(§4) Serum samples for LH, FSH and testosterone analysis were taken at time points: pre-dose and 1, 2, 3, 4, 6 and 12 hours post dose. Serum was stored at −40° C.
(§5) LH and FSH were measured using a DELFIA assay. […] Testosterone was measured using a DELFIA testosterone assay; a solid phase fluoro-immuno-assay based on competition between Europium-labeled Testosterone and sample Testosterone.

[2] = system: LH; test: Experiment 4: single oral dose pharmacodynamic study, serum LH (DELFIA); conditions: healthy male volunteers, single oral doses 4, 8, 16 mg
From the text: as §1, §2, §3, §4, §5

[3] = system: FSH; test: Experiment 3: multiple oral dose study, serum FSH (DELFIA); conditions: healthy male volunteers, 4, 8, 16 mg q.d. or 12 mg b.i.d. oral
From the text: (§6) A phase I, double-blind, placebo-controlled, parallel group, multiple oral dose and multiple ascending dose study with compound 1 in healthy male volunteers to assess the safety, tolerability, pharmacokinetics and pharmacodynamics of compound 1 after single, multiple and multiple ascending doses.
(§7) This was a single center, double-blind, placebo-controlled, parallel group design. A total of 40 subjects were randomized over 5 groups of 8 subjects; within each group 6 subjects received multiple oral doses of compound 1 and 2 subjects received placebo. Subjects were male volunteers with a good physical and mental health, aged 18-45 years, body mass index 18-28 kg/m^2.
(§8) Freeze dried cake of compound 1 (Batch No. CW 186) was supplied in 10 mL vials (50 mg active entity in 10 mL vials). The freeze dried cake was reconstituted with sterile de-ionized water B.P and subsequently diluted with sterile de-ionized water to a dose volume of 50 mL. […]
(§9) LH and FSH were measured using a DELFIA assay. […] Testosterone was measured using a DELFIA testosterone assay; a solid phase fluoro-immuno-assay based on competition between Europium-labeled Testosterone and sample Testosterone. […]

[4] = system: testosterone; test: Experiment 4: single oral dose pharmacodynamic study, serum testosterone (DELFIA); conditions: healthy male volunteers, single oral doses 4, 8, 16 mg
From the text: as §1, §2, §3, §4, §5

[5] = system: LH; test: Experiment 1: single rising oral dose trial, serum LH (DELFIA); conditions: healthy male volunteers, single oral doses 0.5-30 mg, 0 to 12 hours post-dose, vs placebo
Method: (§10) A double-blind, cross-over, placebo controlled, single rising oral dose trial with compound 1 was carried out in healthy male volunteers to assess its tolerability, safety, pharmacokinetic and pharmacodynamic profile.
(§11) This was a double-blind, placebo-controlled, single rising oral dose study in 16 subjects. Each subject was assigned to one of 4 dosing groups and received 3 successive single oral doses of compound 1 and placebo in a four-way cross-over design. Subjects were male volunteers with a good physical and mental health, aged 18-45 years, body mass index […]. […]
as §5
(§12) Effect of treatment was characterised by calculating areas under the effect curve (AUE) over 0-4 h and 0-final assessment time periods. AUEs were calculated with the linear trapezoidal rule using protocol times. […] All measures were analysed using analysis of variance with factors subject and treatment and with the prevalue as covariate. A linear contrast on dose group was calculated with dose groups assigned in ascending order.

[6] = system: FSH; test: Experiment 2: single-dose crossover trial, serum FSH (DELFIA); conditions: healthy male volunteers, single oral doses 5, 13, 20 mg
From the text: (§13) A single-dose, double-blind, placebo-controlled, randomized, crossover trial to evaluate visual effects of compound 1 in healthy male volunteers
(§14) This was a double-blind, placebo-controlled, four-period crossover study involving the administration of three single oral doses of compound 1 and placebo in 24 healthy male subjects. For each subject the compound 1 treatments were randomized in ascending order, each treatment period was separated by at least 3 days wash-out. Subjects were male volunteers with a good physical and mental health, aged 18-45 years, body mass index 18-28 kg/m^2.
(§15) A freeze dried cake of compound 1 (Batch No CW122) was reconstituted with de-ionized water BP and subsequently diluted with gelatin/mannitol to 50 mL solution for oral administration. Dose levels of compound 1 used in this trial were: 5 mg, 13 mg and 20 mg
(§16) Serum samples for LH, FSH and testosterone analysis were taken at time points: pre-dose and 20′, 45′, 1h10′, 1h35′, 2h, 2h25′, 2h50′, 3h15′, 4h, 6h, 8h, 12h, 16h and 24h post-dose. Serum was stored at −40° C.
(§17) LH and FSH were measured using a DELFIA assay. The DELFIA LH and DELFIA FSH assays are solid phase, two-site fluoroimmunometric assays based on the direct sandwich technique. Testosterone was measured using a DELFIA testosterone assay; a solid phase fluoro-immuno-assay based on competition between Europium-labeled Testosterone and sample Testosterone.
(§18) Descriptive statistics for serum FSH, LH and testosterone concentrations were calculated, both as absolute values and as percentage of baseline. In addition the following parameters were calculated: Cmin, tmin, Cmean,0-24, both Cmin and Cmean,0-24 were expressed in absolute values and as percentage of baseline. No formal statistical analysis was done on these PD parameters. Only descriptive statistics were calculated by dose. Furthermore, summary plots of the PD parameters versus treatment were made

[7] = system: LH; test: Experiment 2: single-dose crossover trial, serum LH (DELFIA); conditions: healthy male volunteers, single oral doses 5, 13, 20 mg
From the text: as §13, §14, §15, §16, §17, §18

[8] = system: FSH; test: Experiment 1: single rising oral dose trial, serum FSH (DELFIA); conditions: healthy male volunteers, single oral doses 0.5-30 mg, 0-12 h period; slower than LH
Method: as §10, §11, §5, §12

[9] = system: testosterone; test: Experiment 1: single rising oral dose trial, serum testosterone (DELFIA); conditions: healthy male volunteers, single oral doses 0.5-30 mg, 0-12 h period; slower than LH
Method: as §10, §11, §5, §12

[10] = system: testosterone; test: Experiment 3: multiple oral dose study, serum testosterone (DELFIA)
From the text: as §6, §7
Freeze dried cake of compound 1 (Batch No. CW 186) was supplied in 10 mL vials (50 mg active entity in 10 mL vials). The freeze dried cake was reconstituted with sterile de-ionized water B.P and subsequently diluted with sterile de-ionized water to a dose volume of 50 mL. Compound 1 was administered as an oral solution (50 mL) according to the following schedule: • Group 1: a single dose of 4 mg compound 1 on day 1 followed by once daily dosing of 4 mg compound 1 on days 4 to 13 • Group 2: a single dose of 8 mg compound 1 on day 1 followed by once daily dosing of 8 mg compound 1 on days 4 to 13 • Group 3: a single dose of 16 mg compound 1 on day 1 followed by once daily dosing of 16 mg compound 1 on days 4 to 13 • Group 4: a single dose of 12 mg compound 1 on day 1, twice daily dosing of 12 mg compound 1 on days 4 to 12 followed by a single dose of 16 mg compound 1 on day 13
For group 5 a dose titration was used. In this group no samples for LH, FSH and testosterone were taken. […]
as §9

[11] = system: testosterone; test: Experiment 2: single-dose crossover trial, serum testosterone (DELFIA); conditions: healthy male volunteers, single oral doses 5, 13, 20 mg
From the text: as §13, §14, §15, §16, §17, §18

[12] = system: LH; test: Experiment 3: multiple oral dose study, serum LH (DELFIA); conditions: healthy male volunteers, 4, 8, 16 mg q.d. or 12 mg b.i.d. oral
From the text: as §6, §7, §8, §9

[13] = decrease generally largest after 16 mg
[14] = 0-24 h, compared with adjusted Cmin

COc1ccc2c(c1)CC[C@H](CN(C)CC(=O)O)[C@@H]2c1ccccc1.Cl [compound 1]
effect on FSH [1]: No effect
LH suppression [2]: suppressed to some extent
time of maximum decrease in FSH values post-dose [3]: 6 to 12 h
mean FSH values [3, 13]: decreased following dosing
testosterone suppression [4]: suppressed to some extent
treatment effect on LH levels (decrease) [5]: statistically significant treatment effect
adjusted Cmin FSH [6]: decrease with increasing active dose
effect on FSH concentrations [6]: not clearly visible
adjusted Cmean FSH [6, 14]: decreases are smaller and less consistent
adjusted Cmin LH [7]: decrease with increasing active dose
time of largest LH decrease post dose [7]: approximately 4 h
adjusted Cmean LH [7, 14]: decreases are smaller and less consistent
LH concentrations after treatment ([7]; decreases larger at increasing doses): decrease after compound 1 treatment
FSH concentrations, linear contrast on dose [8]: significant linear decreases with rising doses
testosterone concentrations, linear contrast on dose [9]: significant linear decreases with rising doses
time post-dose until which testosterone levels dropped ([10]; healthy male volunteers, 4, 8, 16 mg q.d. or 12 mg b.i.d. oral): 6 to 12 h
testosterone levels after dosing ([10]; healthy male volunteers, 4, 8, 16 mg q.d. or 12 mg b.i.d. oral, partly circadian rhythm, afterwards back to approximately baseline): dropped sharply after dosing
magnitude of the testosterone decrease compared with placebo ([10]; largest decreases in the 16 mg q.d. and 12 mg b.i.d groups): generally larger following administration of compound 1
adjusted Cmin Testosterone [11]: decrease with increasing active dose
adjusted Cmean testosterone [11, 14]: decreases are smaller and less consistent
testosterone concentrations after treatment ([11]; decreases larger at increasing doses, somewhat slower than LH): decrease after compound 1 treatment
time of maximum decreases in LH after dosing [12]: 2 h
mean LH values [12, 13]: decreased following dosing
